Structures can show the parent of a compound that is named as a salt.
Assays:
[1] = test system: HbF in primary human erythroid cells; test: FACS of HbF positive cells in primary human erythroid progenitors; type: cell-based; conditions: DMF 200 μM, MMF 1000 μM, HU 100 μM
Description: HU (100 μM; Sigma) was included as a positive control and cell viability was monitored by trypan blue exclusion. Findings in KU812 cells were confirmed in human primary erythroid progenitor cells grown in liquid culture using a published protocol. Globin expression was measured by qPCR also as previously published. HbF protein was measured relative to that of isotype control using FITC conjugated anti-human HbF antibody (1:1000; Santa Cruz Biotechnology, Santa Cruz, Calif.) and fluorescence activated cell sorting (see supplemental methods for details). HbF protein expression was confirmed by Western blot analysis using anti-human HbF antibody (1:1000; Bethyl Laboratories, Inc., Montgomery, Tex.) and horseradish peroxidase-conjugated sheep IgG (1:1000; Santa Cruz).
Erythroid progenitors were generated in vitro from adult CD34^+ stem cells ([…] technologies, Inc. Vancouver, Canada) using a 2-stage culture system that achieves terminal erythroid differentiation18. CD34^+ stem cells (500,000) were grown in First medium consisting of Iscove Modified Dulbecco Media containing human AB serum, interleukin-3 (10 ng/mL), stem cell factor (10 ng/mL) and erythropoietin (2 IU/mL). On day 7, the erythroblasts were placed in Second medium with 2 IU/mL erythropoietin for the duration. […] Then cells were harvested for total RNA and protein for qPCR, FACS and western blot analyses.
After drug treatments, 500,000 cells were washed twice with phosphate buffered saline and then fixed in 4% paraformaldehyde and permeated with ice-cold acetone/methanol (4:1). Cells were incubated with anti-γ-globin-FITC antibody (Santa Cruz Biotechnology, Santa Cruz, Calif.) in PBT (PBS/01% BSA/0.1% triton X100) solution for 20 min to stain intracellular HbF antigens. The labeled cells were analyzed by Bectin Dickerson LSR-II flow cytometer (BD Bioscience). All experiments were performed in triplicate.

γ-globin promoter = test: KU812 dual-luciferase reporter assay of γ-globin promoter activity; type: cell-based, human; conditions: for concentration of maximal induction of γ-globin promoter activity: 0-1000 μM, 48 h
Source text: (§1) KU812 stable cell lines were created by co-transfecting wild-type KU812 cells with pEGFP-NI (G418 selectable marker) and the μLCRβprRluc AγprFluc dual reporter a kind gifts from Dr. George Stamatoyannopoulos (University of Washington). Briefly, the 315-bp human β-globin gene promoter sequence was inserted upstream of the Renilla along with a polyadenylation signal downstream to create PβprRluc. Likewise, 1.4 kb of human aγ-globin promoter was inserted upstream of firefly luciferase to create AγprFluc. The μLCR (locus control region), PβprRluc, and AγprFluc fragments were subsequently cloned into the mammalian vector, pRL-null. The dual-luciferase reporter lines were produced using 10 μg each of linearized μLCRβprRluc AγprFluc and pEGFP-NI plasmids co-transfected into KU812 cells by electroporation at 260 V, 975 μF (Bio-Rad, Hercules Calif.). After 72 hr, G418 was added at a concentration of 900 μg/μl for 3 days then maintained under selection pressure indefinitely at a concentration of 400 μg/μl. […] FK228 and analogues were screened at concentrations between 1-1000 nM for 48 hr and cell toxicity was monitored by 2% Trypan blue exclusion. The effect of drug treatments on γ-globin and β-globin promoter activity was monitored by luciferase assay.
Luciferase activity was monitored under the different experimental conditions using the Dual Luciferase Assay Reporter System (Promega, Madison, Wis.). The activity of firefly luciferase represents γ-globin promoter activity (γF), while the renilla luciferase is the read-out for β-globin promoter activity (βR). […] After drug treatments, KU812 stable cells were washed with 1× phosphate buffered saline and lysed in 1× Passive Lysis Buffer for 15 min, then protein extracts were added to the Luciferase Assay Reagent II and firefly luciferase activity quantified in a Turner Designs TD-20/20 luminometer (Sunnyvale, Calif.). […] Total protein was determined by Bradford assay on a Beckman DU 640 spectrophotometer (Chaska, Minn.) and luciferase activity was corrected for total protein. […]

[2] = test system: small intestinal cell model; conditions: cited from earlier work
[3] = test system: γ-globin gene expression in primary RPE cells; test: γ-globin/HbF expression in primary RPE cells from humanized mice; type: cell-based, mouse; conditions: ARPE-19 and primary RPE cells (FIGS. 8B, 8D, 8E, 11)
Description: The effect of MMF on primary RPE cells was also investigated. RPE cells were isolated from the eyes of humanized mice and used to establish primary RPE cell cultures. […] Primary RPE cells were cultured in the presence or absence of MMF at concentrations ranging from 0-1000 μM for a period of 9 hours. Total RNA was prepared and γ-globin gene expression analyzed by qPCR. […] Data are represented as mean±SEM; *P<0.01, **P<0.001.
Identical experiments were performed using the human RPE cell line ARPE-19, an established model for the study of RPE19, and primary RPE cell cultures established from the eyes of HbAA- and HbSS-expressing Townes humanized knock-in SCD mice (Jackson Laboratories, Bar Harbor, Me.) per our published method. Additionally, MMF (1 mM final concentration) or PBS (control) was injected intravitreally into the eyes of HbAA and HbSS mice and retinal γ-globin and HbF expression analyzed by qPCR and immunofluorescence 24 h post-injection. Animal studies were approved by the Georgia Regents University Institutional Committee for Animal Use in Research and Education.
HbF protein production in ARPE-19 cells exposed to MMF (1000 μM) for 24 h was evaluated using a FITC-conjugated HbF antibody and fluorescence microscopy (data not shown). Cell nuclei were counterstained with DAPI. […]

OCTN1 = OCTN1 mRNA expression in ARPE-19 cells; type: cell-based, human; conditions: RPE (ARPE-19) cells; MMF 1000 μM, HU 100 μM
Source text: Red blood cells, cells of erythroid lineage, are the primary producers of hemoglobin. […] The includes retinal pigment epithelial (RPE) cells, a cell type critical to normal visual function. […] Data are represented as mean±SEM; *p<0.05.

KU812 cells = type: cell-based; conditions: human, 48 h
Source text: as §1, with “pRL-null.” for “pRL-null. The dual-luciferase reporter lines were produced using 10 μg each of linearized μLCRβprRluc AγprFluc and pEGFP-NI plasmids co-transfected into KU812 cells by electroporation at 260 V, 975 μF (Bio-Rad, Hercules Calif.). After 72 hr, G418 was added at a concentration of 900 μg/μl for 3 days then maintained under selection pressure indefinitely at a concentration of 400 μg/μl.”
Luciferase activity, an indicator of γ-globin promoter induction, was monitored KU812 μLCRβprRlucγprFluc—stable cells cultured in the presence of absence (untreated control, UT) of MMF at varying dosages for 48 hour according to the method discussed above and in MaKala et al., Anemia, Volume 2012, Article ID 428137) (2012).
HU (100 μM; Sigma) was included as a positive control and cell viability was monitored by trypan blue exclusion. […] Globin expression was measured by qPCR also as previously published. […]

[4] = test system: γ-globin gene expression in KU812 cells; test: γ-globin gene expression by qPCR in KU812 cells; type: cell-based, human; conditions: 100 μM, depending upon the incubation time (3-24 h)
Description: KU812 cells were cultured in the presence or absence of MMF for time periods ranging from 0-24 hours and evaluated for changes in γ-globin gene expression relative to 18S ribosomal RNA expression (internal experimental control) by qPCR (FIG. 1). In comparison to control, untreated (UT) cells, significant increases in γ-globin gene expression were observed as early as 3 hours post-incubation with low-does (100 μM) MMF treatment. This MMF-induced increase in γ-globin expression persisted up to 24 h post-exposure to the compound. Data in FIG. 1 are represented as means±standard error of the mean (SEM); *P<0.05, **P<0.01 and ***P<0.001.
FIG. 2 is reproduced from MaKala et al., Anemia, Volume 2012, Article ID 428137) (2012). […] At 100 μM, the same concentration that we used for MMF, HU induces γ-globin gene expression ˜2-fold.

[5] = test system: γ/β-globin mRNA in primary human erythroid cells; test: γ/β-globin mRNA by qPCR in primary human erythroid progenitors; type: cell-based; conditions: DMF 200 μM, MMF 1000 μM
Description: HU (100 μM; Sigma) was included as a positive control and cell viability was monitored by trypan blue exclusion. Findings in KU812 cells were confirmed in human primary erythroid progenitor cells grown in liquid culture using a published protocol. Globin expression was measured by qPCR also as previously published. HbF protein was measured relative to that of isotype control using FITC conjugated anti-human HbF antibody (1:1000; Santa Cruz Biotechnology, Santa Cruz, Calif.) and fluorescence activated cell sorting (see supplemental methods for details). HbF protein expression was confirmed by Western blot analysis using anti-human HbF antibody (1:1000; Bethyl Laboratories, Inc., Montgomery, Tex.) and horseradish peroxidase-conjugated sheep IgG (1:1000; Santa Cruz). Erythroid progenitors were generated in vitro from adult CD34^+ stem cells ([…] technologies, Inc. Vancouver, Canada) using a 2-stage culture system that achieves terminal erythroid differentiation18. CD34^+ stem cells (500,000) were grown in First medium consisting of Iscove Modified Dulbecco Media containing human AB serum, interleukin-3 (10 ng/mL), stem cell factor (10 ng/mL) and erythropoietin (2 IU/mL). On day 7, the erythroblasts were placed in Second medium with 2 IU/mL erythropoietin for the duration. […] Then cells were harvested for total RNA and protein for qPCR, FACS and western blot analyses.

[6] = single doses, healthy adults, cited from earlier work

COC(=O)/C=C/C(=O)OC [DMF, dimethyl fumarate]
increase in HbF positive cells (FACS) [1]: 28 fold | concentration of maximal induction of γ-globin promoter activity (γ-globin promoter): 200 µM | effectiveness as inducer of γ-globin promoter activity at higher concentrations (γ-globin promoter; concentrations higher than 100-200 μM): declined substantially | permeability ([2]; in vitro small intestinal cell model): high permeability | metabolism in the intestinal tissue ([2]; intestinal tissue): complete metabolism

NC(=O)NO [HU, hydroxyurea]
increase in HbF positive cells (FACS) [1]: 15 fold | γ-globin expression and HbF production in RPE cells [3]: induction of γ-globin expression and HbF production | OCTN1 expression (OCTN1): little to no effect

COC(=O)/C=C/C(=O)O [MMF, monomethyl fumarate]
increase in HbF positive cells (FACS) [1]: 32 fold | concentration of maximal induction of γ-globin promoter activity (γ-globin promoter): 1000 µM | Cell viability by Trypan blue exclusion (KU812 cells): 90-95% | γ-globin gene expression, fold increase vs untreated [4]: 2-4 fold | γ/β-globin mRNA induction [5]: 8 fold

CCN(CC)C(=O)COC(=O)/C=C/C(=O)OC [XP23829]
tolerability ([6]; four oral formulations): generally well-tolerated | levels of MMF in the blood [6]: expected levels of MMF in the blood

— patent US10813905B2, “Methods of treating sickle cell disease and related disorders using fumaric acid esters” (Augusta University Research Institute, Inc., priority 2012, dated 2020)
